Measurements reported in patent US10842795B1, “Chemosensitization of resistant Pseudomonas aeruginosa by synthetically related compounds” (King Abdulaziz University, priority 2020, dated 2020).
Entries after “also recorded” stand apart in the source; their conditions may differ.

How the values were obtained:
[1] = system: Pseudomona aeruginosa ATCC 27853; experiment: Cup diffusion (agar plate diffusion) assay of ciprofloxacin chemosensitization; format: cell-based, Pseudomonas aeruginosa; details: 200 μM compound with CPX, MDR-Pa, in words
Protocol: ^1H NMR (400 MHz, DMSO-d6) δ 9.88 (s, 1H), 7.66 (dd, J=1.51, 7.78 Hz, 2H), 7.53-7.62 (m, 3H), 7.43-7.51 (m, 3H), 7.37-7.43 (m, 2H), 7.29-7.37 (m, 1H), 7.07-7.12 (m, 2H), 6.95-7.02 (m, 1H), 6.87 (d, J=15.81 Hz, 1H), 4.19 (q, J=7.11 Hz, 2H), 1.25 (t, J=7.15 Hz, 3H). Biological Screening Efflux Pump Inhibition (EPI) Screening Methodology: Bacterial isolate. Pseudomona aeruginosa ATCC 27853 stored at −70° C. in Trypticase soy broth supplemented with 10% glycerol was recovered for testing. Tests performed. Cup diffusion assay was performed to assess interaction between Ciprofloxacin CPX and 24 compounds. CPX minimum inhibitory concentrations (MICs) were determined alone and in the presence of each compound at concentrations ranging from 2000 to 62.5 μg/mL against P. aeruginosa. A fixed concentration of 200 μM of each compound was selected for testing.
Briefly, Petri dishes (90 mm) were filled with 25 mL Muller-Hinton agar containing 1 mL bacterial culture (1×10^6 CFU/mL) and 200 μM of each compound. The strains were inoculated separately. Six holes (5 mm in diameter) were made in the seeded agar plates. The holes were then filled with 20 μL of each concentration of CPX, plate with CPX only was served as control. Dishes were then incubated for 24 h at 37° C. The MIC was recorded as the lowest concentration that inhibits the growth of the bacterial strains. […] All assays were performed in triplicate and MIC's values are given in μg/mL. The inhibition zone was measured using a caliper.
The agar plate diffusion test (Zou, He et al. 2019) was utilized to qualitatively evaluate the ciprofloxacin killing effect on MDR-Pa in absence (control) and in presence of our designed efflux pump inhibitors.

MDR-Pa = experiment: Pseudomonas aeruginosa liquid killing assay on C. elegans (chemosensitization of MDR-Pa); format: in vivo; details: for Survival x/50 in presence of CAB compounds at 25 μM: 25 μM CAB compound + 100 μg/mL CPX; for Survival x/50 in presence of CAB compounds at 50 μM: 50 μM CAB compound + 100 μg/mL CPX; for Survival x/50 in presence of CAB compounds at 100 μM: 100 μM CAB compound + 100 μg/mL CPX; for Survival x/50 in presence of CAB compounds at 200 μM: 200 μM CAB compound + 100 μg/mL CPX; for Activity in C. elegans model (survival and motility), in words: MDR-Pa infected C. elegans with CPX; for C. elegans + 100 μg/mL CPX) MIC: MDR-Pa infected C. elegans, in presence of 100 μg/mL CPX
Protocol: In vivo EPI activity of compounds that illustrated an MIC against P. aeruginosa. ATCC 27853 were tested on C. elegans using the liquid killing assay (LKA). Briefly, eggs of C. elegans were hatched on lawns of E. coli OP50 on nematode growth medium agar. Worms were grown to L4 stage by incubation at 25° C. for 48 h. Worms were washed off the plate with M9 buffer, deposited onto lawns of E. coli OP50 or P. aeruginosa. ATCC 27853 and the plates were incubated at 25° C. for 16 h. OP50-fed or P. aeruginosa-infected worms were washed from the plate with M9 buffer, allowed to settle to bottom of Eppendorf tubes, and rinsed with M9 buffer. The M9 was then removed and worms were resuspended in 5 mL liquid killing medium (80% M9 and 20% nematode growth medium (NGMII)) and 95 μL aliquots with approximately 50 worms were added to the wells of 96-microtiter plates with or without test compounds at the indicated concentration ranges (starting from 200 μM) in presence of sub-MIC concentration of CPX (100 μg/mL). As a control, worms treated without test compound contained an equivalent amount of DMSO in the assay medium. Plates were scored for live worms at the time of inoculation and incubated at 37° C. for 24 h. Using a dissecting microscope, worms were considered dead if they appeared straight, and alive if they appeared S-shaped and were moving.
C. elegans is a very efficient whole organism test. The worm develops several reliable disease pathways and can be recruited to measure therapeutic activities of compounds. The technique bears several advantages such as low cost, there is no need for special growth or assay conditions (c.f. animal house and expensive caring for in vivo test on mammalians such as rats) (Kaletta and Hengartner 2006) and there are no ethical issues with consuming animals. In our particular assay, C. elegans can be infected and killed by Pa, and therefore, can be used for identifying compounds that help to protect the worm from pathogenic bacteria (Ewbank and Zugasti 2011).
We used the assay to measure the CAB N-alkyl derivatives CAB-30, CAB-35, CAB-36, CAB-37, CAB-38, CAB-40, CAB-41, CAB-42 and CAB-43 ability to protect C. elegans against MDR-Pa.

Pgp [2] = molecular target: T1, Pgp (Homo sapiens, UniProt P08183); details: reported earlier (El-Araby, Omar et al. 2017); cited from earlier work
T1 construct: highly resistant cells K562 Adr500 which keep R123 outside the cancer cells; endogenous in cells; host or cells: K562 Adr500 (adriamycin-resistant human leukemia K562 cells)

[3] = Solubility (qualitative statement); format: physicochemical; details: in words
Pgp [4] = molecular target: T1, Pgp; experiment: Rhodamine123 (R123) efflux assay in K562 Adr500 cells; format: cell-based; details: in words
Protocol: The cells (10^5) were counted and suspended in 1 ml RPMI medium. The appropriate CAB derivative (0.5 μM) was added to the medium alongside 1, 5 or 10 μM WYE-354, or 100 μM Verapamil as control inhibitors and incubated for 60 min at 37° C. Upon dye uptake, the cells were pelleted by centrifugation at 250×g for 5 min at 4° C. in a cold centrifuge. The harvested cells were washed twice with 1× ice-cold PBS and resuspended in 1 ml RPMI with the inhibitors alone, and reincubated for an additional 60 min at 37° C. to allow the efflux of R123. The cells were subsequently washed twice with ice-cold PBS and analyzed immediately on a BD FACSAria III. A minimum of 5,000 events were recorded for analysis.
We studied the selectivity of CAB-38 by testing its Pgp inhibition (human efflux protein) activities. This assay was performed by measuring the retention of Rhodamine123 (R123) dye (substrate of Pgp) in human leukemia cell lines K562. The negative control of experiment is composed of highly resistant cells K562 Adr500 which keep R123 outside the cancer cells (FIG. 3A). The positive control is performed by repeating the same experiment after incubation of cells with everolimus sub-cytotoxic dose, a powerful Pgp inhibitor (FIG. 3B). The test compound was incubated with K562 Adr500 and then added R123 dye. […]

T1 sequence (P08183 whole entry): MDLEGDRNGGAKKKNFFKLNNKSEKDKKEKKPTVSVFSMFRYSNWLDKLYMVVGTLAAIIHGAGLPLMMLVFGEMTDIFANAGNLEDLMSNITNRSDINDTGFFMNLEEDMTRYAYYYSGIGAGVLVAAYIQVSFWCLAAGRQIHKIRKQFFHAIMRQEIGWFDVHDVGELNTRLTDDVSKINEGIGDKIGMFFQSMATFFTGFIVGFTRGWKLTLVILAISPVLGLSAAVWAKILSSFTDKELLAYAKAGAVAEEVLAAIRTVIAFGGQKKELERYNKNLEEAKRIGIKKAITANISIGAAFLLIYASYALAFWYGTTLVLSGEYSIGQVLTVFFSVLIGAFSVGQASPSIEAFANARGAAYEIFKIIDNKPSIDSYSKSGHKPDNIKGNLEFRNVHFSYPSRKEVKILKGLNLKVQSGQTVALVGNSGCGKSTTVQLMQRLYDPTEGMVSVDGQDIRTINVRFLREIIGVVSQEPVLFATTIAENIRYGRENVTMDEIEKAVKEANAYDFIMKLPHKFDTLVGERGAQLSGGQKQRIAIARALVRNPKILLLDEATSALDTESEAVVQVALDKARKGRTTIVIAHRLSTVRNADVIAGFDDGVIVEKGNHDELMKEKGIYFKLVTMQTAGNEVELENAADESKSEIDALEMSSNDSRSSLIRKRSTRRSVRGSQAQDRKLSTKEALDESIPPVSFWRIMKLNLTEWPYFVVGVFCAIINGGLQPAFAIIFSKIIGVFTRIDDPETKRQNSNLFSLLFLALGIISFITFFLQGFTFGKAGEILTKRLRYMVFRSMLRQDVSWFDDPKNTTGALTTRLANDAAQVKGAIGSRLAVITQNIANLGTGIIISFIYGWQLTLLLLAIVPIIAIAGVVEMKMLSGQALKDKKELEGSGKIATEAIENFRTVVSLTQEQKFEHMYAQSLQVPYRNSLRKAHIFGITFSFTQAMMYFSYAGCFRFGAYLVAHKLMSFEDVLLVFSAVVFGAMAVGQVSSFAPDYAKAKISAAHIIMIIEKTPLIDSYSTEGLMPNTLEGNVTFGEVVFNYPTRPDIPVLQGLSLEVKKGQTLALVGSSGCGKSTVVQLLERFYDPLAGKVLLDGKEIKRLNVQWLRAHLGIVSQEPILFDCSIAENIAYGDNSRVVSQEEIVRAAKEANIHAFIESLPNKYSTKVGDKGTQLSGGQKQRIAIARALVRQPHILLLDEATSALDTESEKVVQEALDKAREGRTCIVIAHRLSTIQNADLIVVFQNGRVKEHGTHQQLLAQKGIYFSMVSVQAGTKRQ

Structure (SMILES)	Enhancement of CPX antibiotic activity (chemosensitization, inhibition zone) [1]	Survival x/50 in presence of CAB compounds at 100 μM (MDR-Pa)	Survival x/50 in presence of CAB compounds at 200 μM (MDR-Pa)	C. elegans + 100 μg/mL CPX) MIC (MDR-Pa)	other results
CCOC(=O)/C(=C/C=C/c1ccccc1)NC(=O)C=Cc1ccccc1 [CAB-21, Ethyl (2Z,4E)-2-Cinnamamido-5-Phenylpenta-2,4-Dienoate]	weak activities				
CCCNC(=O)/C(=C/C=C/c1ccccc1)NC(=O)/C=C/c1ccccc1 [CAB-30]	highest chemosensitization; also recorded: most potent	40 x/50	50 x/50	1.56 µM	Survival x/50 in presence of CAB compounds at 1.562 μM (MDR-Pa; 1.562 μM CAB compound + 100 μg/mL CPX): 20 x/50; Survival x/50 in presence of CAB compounds at 3.125 μM (MDR-Pa; 3.125 μM CAB compound + 100 μg/mL CPX): 20 x/50; Survival x/50 in presence of CAB compounds at 6.25 μM (MDR-Pa; 6.25 μM CAB compound + 100 μg/mL CPX): 20 x/50; Survival x/50 in presence of CAB compounds at 12.5 μM (MDR-Pa; 12.5 μM CAB compound + 100 μg/mL CPX): 20 x/50; Survival x/50 in presence of CAB compounds at 25 μM (MDR-Pa): 40 x/50; Survival x/50 in presence of CAB compounds at 50 μM (MDR-Pa): 40 x/50; Activity in C. elegans model (survival and motility), in words (MDR-Pa): highly potent; Pgp inhibition activities (Pgp [2]): undesired Pgp inhibition activities
COc1ccc(NC(=O)/C(=C/C=C/c2ccccc2)NC(=O)C=Cc2ccccc2)cc1 [CAB-32, (2Z,4E)-2-cinnamamido-N-(4-methoxyphenyl)-5-phenylpenta-2,4-dienamide]	weak activities				
CNC(=O)/C(=C/C=C/c1ccccc1)NC(=O)C=Cc1ccccc1 [CAB-35, (2Z,4E)-2-cinnamamido-N-methyl-5-phenylpenta-2,4-dienamide]			15 x/50	200 µM	
N#Cc1cccc(NC(=O)/C(=C/C=C/c2ccccc2)NC(=O)C=Cc2ccccc2)c1 [CAB-36, (2Z,4E)-2-cinnamamido-N-(3-cyanophenyl)-5-phenylpenta-2,4-dienamide]	moderate chemosensitization activities			Died	Solubility [3]: poor solubility
O=C(C=Cc1ccccc1)N/C(=C\C=C\c1ccccc1)C(=O)NCCO [CAB-37, (2Z,4E)-2-cinnamamido-N-(2-hydroxyethyl)-5-phenylpenta-2,4-dienamide]				50 µM	Activity in C. elegans model (survival and motility), in words (MDR-Pa): did not show any activity
O=C(C=Cc1ccccc1)N/C(=C\C=C\c1ccccc1)C(=O)N1CCOCC1 [CAB-38, N-((2Z,4E)-1-morpholino-1-oxo-5-phenylpenta-2,4-dien-2-yl)cinnamamide]		10 x/50	40 x/50	25 µM	Survival x/50 in presence of CAB compounds at 25 μM (MDR-Pa): 3 x/50; Survival x/50 in presence of CAB compounds at 50 μM (MDR-Pa): 5 x/50; Pgp inhibition (retention of R123 dye in cells) (Pgp [4]): poor inhibitor of Pgp; also recorded: no inhibition observed; also recorded: not retention of R123 dye; Solubility [3]: improved solubility
COc1cccc(NC(=O)/C(=C/C=C/c2ccccc2)NC(=O)C=Cc2ccccc2)c1 [CAB-40, (2Z,4E)-2-cinnamamido-N-(3-methoxyphenyl)-5-phenylpenta-2,4-dienamide]	weak activities		25 x/50	200 µM	
O=C(C=Cc1ccccc1)N/C(=C\C=C\c1ccccc1)C(=O)N1CCCC1 [CAB-41, N-((2Z,4E)-1-oxo-5-phenyl-1-(pyrrolidin-1-yl)penta-2,4-dien-2-yl)cinnamamide]		7 x/50	25 x/50	50 µM	Survival x/50 in presence of CAB compounds at 50 μM (MDR-Pa): 5 x/50
CCCCNC(=O)/C(=C/C=C/c1ccccc1)NC(=O)C=Cc1ccccc1 [CAB-42, (2Z,4E)-N-butyl-2-cinnamamido-5-phenylpenta-2,4-dienamide]		5 x/50	45 x/50	100 µM	
CC(C)NC(=O)/C(=C/C=C/c1ccccc1)NC(=O)C=Cc1ccccc1 [CAB-43, (2Z,4E)-2-cinnamamido-N-isopropyl-5-phenylpenta-2,4-dienamide]				Died	
O=C(O)c1cn(C2CC2)c2cc(N3CCNCC3)c(F)cc2c1=O [Control (Cipro Only), ciprofloxacin, reference compound]				Died	
CO[C@H]1C[C@@H]2CC[C@@H](C)[C@@](O)(O2)C(=O)C(=O)N2CCCC[C@H]2C(=O)O[C@H]([C@H](C)C[C@@H]2CC[C@@H](OCCO)[C@H](OC)C2)CC(=O)[C@H](C)/C=C(\C)[C@@H](O)[C@@H](OC)C(=O)[C@H](C)C[C@H](C)/C=C/C=C/C=C/1C [everolimus, reference compound]					Pgp inhibition (retention of R123 dye in cells) (Pgp [4]): large increase of R123 dye
